{
  "source": "patent US20060198830A1",
  "about": "“Ubiquinone composition and a container for its convenient transport and storage” (priority 2005, published 2006)",
  "origin": "cited, not measured here",
  "details": "administration of 300-1200 mg/day of CoQ10",
  "data": [
    {"compound": "COC1=C(OC)C(=O)C(C/C=C(\\C)CC/C=C(\\C)CC/C=C(\\C)CC/C=C(\\C)CC/C=C(\\C)CC/C=C(\\C)CC/C=C(\\C)CC/C=C(\\C)CC/C=C(\\C)CCC=C(C)C)=C(C)C1=O", "note": "[CoQ10, Ubiquinone]", "values": [
      {"measurement": "plasma CoQ10 concentrations", "result": "3 to 4", "unit": "µg/mL"}
    ]}
  ]
}
